No end group written: not given here.
Assays:
[1] = format: cell-based; details: broth dilution bioassay
Description: The peptides were recovered by lyophilization and stored at −20° C. until further use. The MIC of the RP-HPLC purified bioactive metabolite was determined to be 0.0365 μg μl^−1 with broth dilution bioassay. The two peaks were detected in the selected wavelengths of λ280 nm, λ205 nm and λ214 nm. However, only the peak 1 was selected for further study as it had shown more potency in antimicrobial susceptibility test.

[2] = Retention of antimicrobial activity after treatment with inorganic solvents and temperature; format: physicochemical; design: key to Activity: (+) retention; (−) loss
Excerpt: Effect of Temperature and Inorganic Solvents:
The AMP, Peoriaerin IBSD35 is a very stable biomolecule and works on a wide range of temperature and pH and withstand against inorganic solvents as shown in Table 2 below.

[3] = Retention of antimicrobial activity after treatment with degradative enzymes; format: physicochemical; design: key to Activity: (+) retention; (−) loss
Description: Effect of Physiological Enzymes:
The purified AMP, Peoriaerin IBSD35 is treated with proteolytic enzymes, it can withstand against enzymes and its antimicrobial activity was checked by measuring the zone of inhibition as shown in Table 3 below.

[4] = Retention of antimicrobial activity after treatment with detergents; format: physicochemical; design: key: (+) retention; (−) loss
Description: The surfactants such as sodium dodecyl sulphate (SDS), Tween 20, Tween 80 and Triton X were incubated with the anti-microbial compound, Peoriaerin IBSD35.

[5] = tested on: Candida albicans ATCC 10231, Escherichia coli ATCC 25922, Klebsiella pneumoniae ATCC 4352, Salmonella typhimurium ATCC 14028, Candida tropicalis ATCC 750 and …; test: Spectrum of antimicrobial activity against AMR pathogens; format: cell-based; details: six ATCC strains listed
Description: Spectrum of antimicrobial activity: The spectrum of activity was determined from the selected test pathogens viz. S. aureus ATCC25923, C. ablicans ATCC 10231, and E. coli ATCC 25922 which represented as a Gram (+), Gram (−) and fungal pathogens (FIG. 2). […] The cell debris were removed by centrifugation at 4000 rpm for 15 min at 4° C. The supernatant was harvested for antimicrobial bioassay and preserved at 4° C. for further purification (Fujita et al., 2007). The well loaded with samples that shown a clear halo zone of inhibition (at least 6-7 mm diameter) were taken as positive against the selected Gram (+ve), Gram (−ve) and fungal pathogens. The bacterial endophytic strain IBSD35 isolated from M. pachycarpa has shown a broad-spectrum of AA against the representative test pathogens in the preliminary Spot-on-lawn bioassay and the Cut-well agar diffusion bioassay (FIG. 2). It inferred antifungal, antibacterial and antimicrobial property of the endophyte strain IBSD35.

GFEFAGAGNGVGRVNSATDATYGLGVFLDAGDNNLAKNAESTGYNDANAVTVTK [Peoriaerin IBSD35]
MIC [1]: 36.5 µg/mL | stable at a pH in the range [2]: 4-9 | Activity ([2]; after Acetone (1:1)): + | Activity ([2]; after Butanol (1:1)): + | Activity ([2]; after Ethyl acetate (1:1)): + | Activity ([2]; after Isopropanol (1:1)): + | Activity ([2]; after Methanol (1:1)): + | Activity ([2]; after Petroleum ether (1:1)): + | Activity ([2]; after Temperature 20 ° C.): + | Activity ([2]; after Temperature 40 ° C.): + | Activity ([2]; after Temperature 60 ° C.): + | Activity ([2]; after Temperature 80 ° C.): + | Activity ([2]; after Temperature 100 ° C.): + | Activity ([2]; after Temperature 121 ° C.): + | Activity ([3]; after Catalase): + | Activity ([3]; after Cellulase): + | Activity ([3]; after Pectinase): + | Activity ([3]; after Pepsin): + | Activity ([3]; after Proteinase K (1 mg/ml)): + | Zone of inhibition diameter ([3]; after Proteinase K (1 mg/ml)): 11 mm | Activity ([4]; after SDS (1:1)): + | Activity ([4]; after Triton X (1:1)): + | Activity ([4]; after Tween 20 (1:1)): + | Activity ([4]; after Tween 80 (1:1)): + | antimicrobial activity against gram positive, gram negative and fungal anti-microbial resistant pathogens [5]: strong and broad spectrum of antimicrobial activity
